This note sets out measurements from the METLIN SMRT retention time set (Domingo-Almenara et al. 2019).

The nature of the series: gradient 5% acetonitrile 3 min, to 50% in 2 min, to 85% in 15 min, held 3 min, 100 µL/min. Particulars: column: Zorbax Extend-C18 2.1 x 50 mm; eluents: water / acetonitrile, 0.1% formic acid. The essentials: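 Retention times come from adduct peaks that were picked computationally and then checked by hand. The standards, pure and pooled in mixtures of ~100 molecules, were run on a Zorbax Extend-C18 column (2.1 × 50 mm, 1.8 μm) at 100 μL/min with water and acetonitrile, each with 0.1% formic acid. Detection was by quadrupole time-of-flight mass spectrometry in positive and negative ionization mode, with a dead volume of 40 μL and a dwell volume of 900 μL.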
`Cc1cc(SCC(=O)N2CCCc3ccccc32)ncn1`: the RP-LC retention time amounted to 771 s.
For `COc1ccc(N2CCN(c3ccc4cc(S(=O)(=O)N5CCCC5)ccc4n3)CC2)cc1` the value was 855 s.
Compound `CCNC(=O)c1nc(C(=O)NC(C)c2ccc(C)cc2)cs1` (centres undefined) returned an RP-LC retention time of 843 s.
For the compound `COc1ccc(CN2C=C(C(=O)OCc3nc(-c4ccccc4)no3)C(C)=NS2(=O)=O)cc1`, the RP-LC retention time stood at 1100 s.
For `CCNc1nc(C)cc(N2CCN(S(=O)(=O)c3cc(C(C)C)ccc3C)CC2)n1` the value was 838 s.
With `CCOC(=O)C1CCN(c2cc3c(cc2NC(=O)C2CCCCC2)n(C)c(=O)c(=O)n3C)CC1` the figure was 906 s; with `Cc1nc(NC(=O)c2ccccc2)n[nH]1`, 583 s; with `COc1cccc(-c2cc(C3CCN(C(=O)NC4CCCC4)CC3)[nH]n2)c1`, 790 s.
For `O=C(O)CNC(=O)C1CCN(S(=O)(=O)c2ccc(F)cc2)CC1` the value was 652 s.
Regarding `CC(C)c1csc(-c2csc(S(=O)(=O)Nc3ccc(Br)cc3F)c2)n1`, the RP-LC retention time came out at 1200 s.
For `CC(C)Cn1c(=O)c(C(=O)NCc2cccc(F)c2)nc2cccnc21` the value was 609 s.
With `COC(=O)c1cc(OCC(=O)NC2CCCCC2)c2cc(OC)c(OC)cc2n1` the figure was 725 s; with `Cc1oc(-c2ccccc2)nc1Cc1noc(Cc2ccc(F)cc2)n1`, 1090 s.
For `CCNC(=O)N1CCCC(c2cccc(C(=O)NCc3ccc(C(F)(F)F)cc3)c2)C1` (centres undefined) the value was 896 s.
On to `O=C(CCc1nnc2c3cc(-c4ccccc4)nn3ccn12)N1CCC2(CC1)OCCO2`, for which the RP-LC retention time stood at 686 s.
With `O=C(C1CCCC1)N1CC(c2nc(-c3ccc(F)cc3)no2)C2(CCOCC2)C1` (centres undefined) the figure was 958 s; with `Clc1ccccc1-c1nc(-c2ccc(-n3cccn3)nc2)no1`, 1270 s; with `Cc1ccc2c(c1)N(S(C)(=O)=O)CCC(C(=O)Nc1ccc(C(C)C)cc1)O2` (centres undefined), 1130 s.
With `COc1ccccc1C(=O)N1CCC(COc2ccc(C(=O)NC(C)C)cc2)CC1` the figure was 817 s; with `Cc1c(C(=O)C(=O)NCc2ccc3c(c2)OCO3)c2ccccc2n1C`, 820 s; with `CCCOC(=O)C1=C(C)NC2=C(C(=O)C(C(=O)OC)C(C)C2)C1c1ccc(OC)cc1` (centres undefined), 907 s.
For `CCCN1C(=O)COc2ccc(-c3noc(C4CC(=O)N(c5ccc(C)c(C)c5)C4)n3)cc21` (centres undefined) the value was 1060 s; for `COc1ccc(OC)c2sc(NC(=O)c3ccc(S(=O)(=O)N4CCCC4)cc3)nc12`, 872 s; for `Cc1nnc(C2CCCCCN2C(=O)CCc2c(C)noc2C)o1` (centres undefined), 674 s.
Turning to `O=C(CCCN1C(=O)C(c2ccccc2)Oc2cccnc21)NCCCN1CCCCC1` (centres undefined), the RP-LC retention time came to 573 s.
With `COc1cc(NS(=O)(=O)c2c[nH]c3ncccc23)cc(OC)c1` the figure was 707 s; with `O=C(Cn1cccc(-c2nc(-c3ccc(Br)cc3)no2)c1=O)Nc1ccc(F)cc1F`, 990 s; with `CCn1c(=O)c(N2CCN(C(=O)NCCCOC)CC2)nc2ccccc21`, 727 s.
For `CCc1ccc(C(=O)N2CCN(c3nnc4cccc(C)n34)CC2)cc1` the value was 691 s; for `Clc1ccc(Cl)c(-c2ccc(CNCCCn3ccnc3)o2)c1`, 589 s.
For `CC1=C(c2ccc(C)c(C)c2)S(=O)(=O)N=C1N1CCCN(C(=O)c2ccsc2)CC1` the value was 858 s; for `COc1cccc(NC(=O)c2cn(CC3CCCO3)cc3c(=O)n(-c4ccccc4)nc2-3)c1` (centres undefined), 997 s.
`CS(=O)(=O)Nc1cccc(NC(=O)c2cc(-c3cccs3)[nH]n2)c1` returned an RP-LC retention time of 699 s.
For the compound `Cc1ccc(CNC(=O)C(C)n2nc(C)c3c(C)n(-c4ccccc4)nc3c2=O)o1` (centres undefined), the RP-LC retention time was 736 s.
For `Cc1nnc(NC(=O)c2ccc(S(=O)(=O)NCc3ccccn3)o2)s1` the value was 581 s.
For `CCN(Cc1ccccc1)Cc1nc(-c2ccc(N3CCCC(C)C3)nc2)no1` (centres undefined) the value was 1020 s; for `COc1ncccc1C(=O)Nc1onc2c1CSC2`, 642 s; for `COc1ccc2c(c1)C1(CCN(C(=O)Cc3ccc(C)cc3)C1)C(=O)N2` (centres undefined), 757 s.
With `NC(=O)C1CCN(C(=O)CCn2cnc3cc(S(=O)(=O)N4CCCC4)ccc32)CC1` the figure was 577 s; with `O=C(NCCCN1CCCC1=O)C1CCN(c2ncnc3c2oc2ccccc23)CC1`, 602 s; with `Cn1cnc2cc(OC(=O)c3c(F)cccc3F)ccc21`, 590 s.
`CCc1ccc2[nH]c3c(c(=O)c2c1)CN(CC(=O)NCc1ccc2c(c1)OCO2)CC3` returned an RP-LC retention time of 624 s.
On to `Cc1noc(-c2ccc(-n3cnc(C(=O)NC(C)c4ccc(F)cc4)c3)nc2)n1` (centres undefined), for which the RP-LC retention time came out at 862 s.
For `Cc1nn(-c2ccccc2)c2c1N(C(=O)CCC(=O)NCCc1c[nH]c3ccccc13)CCS2` the value was 850 s; for `O=C(CN1CCN(Cc2ccc(F)cc2Cl)C1=O)N1CCN(c2ccc(F)cc2)CC1`, 908 s.
For `COC(=O)c1ccccc1Nc1c(-c2ccccn2)nc2cnccn12` the value was 816 s; for `CC1CN(C(=O)Cn2cc(SCC(=O)NCC3CCCO3)c3ccccc32)CC(C)O1` (centres undefined), 723 s.
`CC1CCCCN1CCNC(=O)c1ccc2c(c1)nc1n2CCN(Cc2ccccc2)C1=O` (centres undefined): the RP-LC retention time amounted to 601 s.
On to `CC(C)NC(=O)c1ccc(-c2ccc(N3CCSCC3)nc2)cc1`, for which the RP-LC retention time came out at 663 s.
With `O=S(=O)(CCc1noc(-c2ccc3cc[nH]c3c2)n1)c1ccccc1` the figure was 912 s; with `CCOC(=O)c1ccc(NC2=NS(=O)(=O)C(c3ccc(F)cc3)=C2C)cc1`, 948 s; with `CCCn1c(=O)sc2cc(S(=O)(=O)N3CCC(C(=O)N4CCc5ccccc54)CC3)ccc21`, 1020 s.
The compound `Cc1oc(-c2[nH]ncc2C(=O)N2CCOCC2)cc1S(=O)(=O)NCC(C)C` came in with an RP-LC retention time of 645 s.
With `Cn1ncc2c(N3CCSCC3)nc(C(=O)NCCc3cccnc3)nc21` the figure was 575 s.
`COc1c(C(=O)NCc2ccc(C)o2)sc2cc(Cl)ccc12` gave an RP-LC retention time of 1120 s.
With `Cc1cc(C)cc(C(=O)NCc2ccc3c(c2)ncn3C)c1` the figure was 615 s; with `COc1cccc(Nc2nc(C)c(C(=O)Nc3ccc(F)c(Cl)c3)s2)c1`, 1060 s; with `CCOC(=O)c1noc2ncnc(N3CCc4ccccc43)c12`, 948 s.
Consider `Cc1nc(-c2ccnc(N3CCOCC3)c2)no1`, for which the RP-LC retention time worked out at 614 s.
